US12616672B2, “Methods for assessing risk of cardiovascular disease and methods and compounds for use in treating or preventing cardiovascular disease” (Queen Mary University of London, priority 2017, dated 2026)
Values joined by “and” are separate entries in the source; they are usually repeats but may differ in a detail not shown here. Equal entries are not always repeated.

Legend:
[1] = test system: peripheral blood from healthy volunteers; test: Human whole blood incubations (ACh, norepinephrine, cortisol), then lipid mediator profiling of plasma; assay type: cell-based; conditions: for production of n-3 DPA derived mediators in peripheral blood: norepinephrine 0.1-10 μM, cortisol 1-10 μM, healthy volunteers
Experimental: Plasma was obtained from peripheral blood of healthy volunteers and patients following centrifugation at 1500×g for 10 min at room temperature. Descending aortas were weighed, placed in ice-cold methanol and homogenized using a glass dounce.
All samples for LC-MS-MS-based profiling were extracted using solid-phase extraction columns as described in Dalli et al. 2013 and Rathod et al. 2017, the contents of which are incorporated herein by reference.
Prior to sample extraction, deuterated internal standards, representing each region in the chromatographic analysis (500 pg each) were added to facilitate quantification in 4V of cold methanol.
Samples were kept at −20° C. for a minimum of 45 min to allow protein precipitation.
Supernatants were subjected to solid phase extraction, methyl formate fraction collected, brought to dryness and suspended in phase (methanol/water, 1:1, vol/vol) for injection on a Shimadzu LC-20AD HPLC and a Shimadzu SIL-20AC autoinjector, paired with a triple quadrupole mass spectrometer with or without a linear ion trap.
An Agilent Poroshell 120 EC-C18 column (100 mm×4.6 mm×2.7 μm) was kept at 50° C. and mediators eluted using a mobile phase consisting of methanol-water-acetic acid of 20:80:0.01 (vol/vol/vol) that was ramped to 50:50:0.01 (vol/vol/vol) over 0.5 min and then to 80:20:0.01 (vol/vol/vol) from 2 min to 11 min, maintained till 14.5 min and then rapidly ramped to 98:2:0.01 (vol/vol/vol) for the next 0.1 min. This was subsequently maintained at 98:2:0.01 (vol/vol/vol) for 5.4 min, and the flow rate was maintained at 0.5 ml/min. Mass spectrometer was operated using a multiple reaction monitoring method as in Walker M E et al. 13-Series resolvins mediate the leukocyte-platelet actions of atorvastatin and pravastatin in inflammatory arthritis. FASEB J. 2017 August; 31(8):3636-3648, the contents of which are incorporated herein by reference.
Each LM was identified using established criteria including matching retention time to synthetic and authentic materials and at least six diagnostic ions (Walker M E et al. 2017. ibid.)
Calibration curves were obtained for each using synthetic compound mixtures at 0.78, 1.56, 3.12, 6.25, 12.5, 25, 50, 100, and 200 pg that gave linear calibration curves with an r^2 values of 0.98-0.99. […]

[2] = test system: peripheral blood from CVD patients; conditions: ADA 1U, 37° C., 20 min, then perfused 0.3 Pa
Experimental: (B) Peripheral blood from CVD patients was incubated with ADA (1U; 37° C.; 20 min) then perfused (0.3 Pa, 20 min, 37° C.). Plasma was collected and RvDn-3 DPA concentrations determined using LC/MS-MS based lipid mediator profiling. Results are mean±s.e.m. n=6 donors. *p<0.05, using paired Mann-Whitney test.
Using an automated syringe pump (Harvard Apparatus) connected to small-diameter tubing (1.6 mm inner diameter) and chamber slides (15μ-Slide VI^0.4, Ibidi), whole blood was perfused at a sheer rate of 0.1 dyne/cm^2 (low sheer rate) and at 0.3 dyne/cm^2 (high sheer rate) for 15 min. In selected experiment, blood was incubated with 10 nM Ach or 1 u of ADA for 20 min prior perfusing.

[3] = test system: healthy volunteer peripheral blood neutrophils, monocytes and platelets; test: Healthy volunteer whole blood incubated with RvDn-3 DPA then PAF, flow cytometry of activation markers; assay type: cell-based, human; conditions: vs PAF alone
Experimental: Blood was collected from healthy volunteers and incubated with RvD2n-3 DPA, RvD5n-3 DPA (0.1 nM, 1 nM or 10 nM) or vehicle (PBS) for 15 min (37° C.) then with PAF (100 ng/ml; 30 min; 37° C.). Cell activation and leukocyte-platelet aggregates were assessed using flow cytometry. (A,B) Representative histograms depicting neutrophil (A) CD11b and (B) CD62P expression. (C,D) Cumulative neutrophil ([…]) CD11b and (D) CD62P expression. (E,F) Monocyte (E) CD11b and (F) CD62P expression. Results are mean of n=5 per time point and expressed as percentage change from PAF incubated cells. *p<0.05 compared to PAF using one-sample t test, followed by Sidak correction of p values.
Blood was collected from healthy volunteers and incubated with RvD2n-3 DPA, RvD5n-3 DPA (0.1 nM, 1 nM or 10 nM) or vehicle (PBS) for 15 min (37° C.) then with PAF (100 ng/ml; 30 min; 37° C.). Cell activation and leukocyte-platelet aggregates were assessed using flow cytometry. (A,B) Images depicting platelet monocyte (A) and (B) platelet-neutrophil aggregates. Results are representative of n=3 distinct experiments. (C,D) Cumulative neutrophil (C) CD11b and (D) CD62P expression. (E,F) Monocyte (E) CD11b and (F) CD62P expression. Results are mean of n=5 per condition and expressed as percentage change from PAF incubated cells. *p<0.05 compared to PAF using Wilcoxon Signed Rank Test. (G) Platelet rich plasma was incubated with vehicle (PBS) or RvD5n-3 DPA 0.1-10 nM (15 min; 37° C.) and PAF (100 nM; 30 min; 37° C.). Adhesion molecule expression evaluated using flow cytometry. Results are mean±s.e.m. n=5 healthy volunteers. * p, 0.05 compared to Vehicle group using Friedman's test followed by Dunn's multiple comparisons test.
(§1) After stimulation, samples were washed twice with PBS for 12 min at 800×g. Samples were stained for flow cytometry as described below.
(§2) Whole blood was incubated with lineage-specific markers for 45 min (4° C., in DPBS containing 0.02% BSA). The following anti-human antibodies were used: VioBlue-anti-CD41, PE-Cy5-anti-CD62P, Brilliant Violet 711-anti-CD11b, APC-Cy7-anti-CD16, Alexa Fluor 647-anti-CD14. After staining, red blood cells were lysed using Whole Blood Lysing Reagent Kit, according to the manufacturer's instructions. Data was collected using a flow cytometer and analysis was conducted using appropriate software.

[4] = test system: peripheral blood leukocytes and platelets from CVD patients; test: CVD patient whole blood incubated with RvD2n-3 DPA or RvD5n-3 DPA for 45 min, flow cytometry; assay type: cell-based, human; conditions: 45 min, no PAF
Experimental: FIG. 8: RvD2n-3 DPA and RvD5n-3 DPA reduce leukocyte activation in peripheral blood from CVD patients. Peripheral blood from patients diagnosed with cardiovascular disease (CVD) was collected at 9:00 h. […] Expression of CD62P on (A) neutrophils (B) monocytes and CD11b on (C) neutrophils and (D) monocytes was investigated using flow cytometry and fluorescently labelled antibodies.
as §2
In select experiments platelet adhesion molecule expression was assessed. Here platelets were incubated with fluorescently labelled mouse anti-human VioBlue-anti-CD41, PE-Cy5-anti-CD62P, PerCP/Cy5.5-anti-CD63 and FITC-ant-CD42b for 30 min at 4° C. Cells were then washed and fluorescence, staining evaluated using LSRFortessa cell analyser (BD Biosciences) and analysed using FlowJo software (Tree Star Inc., V10).

[5] = test system: peripheral blood leukocytes and platelets from CVD patients; test: CVD patient whole blood incubated with RvD2n-3 DPA or RvD5n-3 DPA then PAF, flow cytometry; assay type: cell-based, human; conditions: 15 min then PAF 30 min
Experimental: (§3) Whole blood was incubated with RvD2n-3 DPA or RvD5n-3 DPA (0.1 nM, 1 nM or 10 nM) or vehicle (PBS containing 0.01% EtOH) for 15 min then with PAF (100 ng/ml) for 30 min (37° C.). Expression of CD62P on (A) neutrophils (B) monocytes and CD11b on (C) neutrophils and (D) monocytes was investigated using flow cytometry and fluorescently labelled antibodies. Results are mean±s.em. and expressed as percentage of PAF incubated cells. n=9 patients per interval. * p<0.05 vs Veh group using one-sample t test, followed by Sidak correction of p values.
as §3, with “labeled” for “labelled”, “group.” for “interval.”, “PAF” for “Veh”, “Wilcoxon Signed Rank Test.” for “one-sample t test, followed by Sidak correction of p values.”
as §1, §2

[6] = test system: peripheral blood leukocytes and platelets from CVD patients; test: as above; assay type: cell-based, human
[7] = whole blood with Cortisol 1 μM, 45 min, n = 5
[8] = whole blood with Cortisol 10 μM, 45 min, n = 5
[9] = 0.1, 1, 10 nM, 15 min then PAF 30 min
[10] = CVD patient whole blood, 0.1, 1, 10 nM
[11] = whole blood with ACh 0.1 μM, 45 min, 37° C., n = 9
[12] = whole blood with ACh 0.1 μM, 45 min, n = 9

Compound: C[C@]12CCC(=O)C=C1CC[C@@H]1[C@@H]2[C@@H](O)C[C@@]2(C)[C@H]1CC[C@]2(O)C(=O)CO [Cortisol, cortisol]
- production of n-3 DPA derived mediators in peripheral blood [1]: did not significantly augment
- 7-HDPA concentration [1, 7]: 268.9 ± 83.5 pg/mL
- 13-HDPA concentration [1, 7]: 3.2 ± 0.7 pg/mL
- 14-HDPA concentration [1, 7]: 286.2 ± 91.0 pg/mL
- 17-HDPA concentration [1, 7]: 74.9 ± 18.2 pg/mL
- DPA concentration [1, 7]: 24568.2 ± 6300.4 pg/mL
- MaR1n-3 DPA concentration [1, 7]: 0.3 ± 0.2 pg/mL
- PD1n-3 DPA concentration [1, 7]: 1.5 ± 1.1 pg/mL
- RvD1n-3 DPA concentration [1, 7]: 1.9 ± 1.2 pg/mL
- RvD2n-3 DPA concentration [1, 7]: 1.0 ± 0.9 pg/mL
- RvD5n-3 DPA concentration [1, 7]: 1.1 ± 0.6 pg/mL
- RvT1 concentration [1, 7]: 0.5 ± 0.2 pg/mL
- RvT2 concentration [1, 7]: 0.1 ± 0.1 pg/mL
- RvT3 concentration [1, 7]: 1.6 ± 0.5 pg/mL
- RvT4 concentration [1, 7]: 2.7 ± 1.5 pg/mL
- 7-HDPA concentration [1, 8]: 257.8 ± 109.6 pg/mL
- 13-HDPA concentration [1, 8]: 3.0 ± 0.6 pg/mL
- 14-HDPA concentration [1, 8]: 241.0 ± 40.9 pg/mL
- 17-HDPA concentration [1, 8]: 71.5 ± 17.5 pg/mL
- DPA concentration [1, 8]: 28823.5 ± 8019.0 pg/mL
- MaR1n-3 DPA concentration [1, 8]: 0.2 ± 0.2 pg/mL
- PD1n-3 DPA concentration [1, 8]: 2.5 ± 1.5 pg/mL
- RvD1n-3 DPA concentration [1, 8]: 1.7 ± 1.5 pg/mL
- RvD2n-3 DPA concentration [1, 8]: 1.2 ± 0.8 pg/mL
- RvD5n-3 DPA concentration [1, 8]: 1.7 ± 0.3 pg/mL
- RvT1 concentration [1, 8]: 0.6 ± 0.2 pg/mL
- RvT2 concentration [1, 8]: 0.1 ± 0.0 pg/mL
- RvT3 concentration [1, 8]: 2.2 ± 1.5 pg/mL
- RvT4 concentration [1, 8]: 3.0 ± 1.8 pg/mL

Compound: adenosine deaminase [ADA]
- concentrations of RvDn-3 DPA in CVD patient blood [2]: increase

Compound: CC/C=C\CC(O)C(O)/C=C/C=C/C=C\C=C\C(O)CCCCCC(=O)O (stereo not drawn) [RvD2n-3 DPA, 7,16,17-trihydroxy-8,10,12,14E,19Z-docosapentaenoic acid]
- monocyte expression of CD11b [3, 9]: dose dependent decreases
- monocyte expression of platelet marker CD62P [3, 9]: dose dependent decreases
- neutrophil CD11b expression [3, 9]: dose dependent decreases
- neutrophil-platelet aggregates measured as neutrophil CD62P expression [3, 9]: dose dependent decreases
- decrease in monocyte CD41 expression ([3]; at 10 nM, n=5 donors): ~29%
- decrease in neutrophil CD41 expression ([3]; at 10 nM, n=5 donors): ~20%
- monocyte CD11b expression [4, 10]: without significantly regulating
- neutrophil CD11b expression [4, 10]: without significantly regulating
- platelet-monocyte aggregates [4, 10]: dose-dependently decreased
- platelet-neutrophil aggregates [4, 10]: dose-dependently decreased
- platelet CD62P expression ([4]; CVD patient whole blood): downregulated
- platelet CD63 expression ([4]; CVD patient whole blood): downregulated
- expression of CD11b on monocytes [5]: only in part shared
- expression of CD11b on neutrophils [5]: only in part shared
- platelet-monocyte aggregates measured as CD62P and CD41 expression [5]: decreases
- platelet-neutrophil aggregates measured as CD62P and CD41 expression [5]: decreases
- expression of CD62P on peripheral blood platelets [6]: dose-dependently regulated
- expression of CD63 on peripheral blood platelets [6]: dose-dependently regulated

Compound: CC(=O)OCC[N+](C)(C)C [ACh, acetylcholine]
- increase in RvD2n-3 DPA compared with blood incubated with vehicle alone ([1]; whole blood incubated with ACh): ~160%
- 7-HDPA concentration [1, 11]: 44.9 pg/mL and 44.9 ± 10.7 pg/mL
- 13-HDPA concentration [1, 11]: 1.9 pg/mL and 1.9 ± 0.6 pg/mL
- 14-HDPA concentration [1, 11]: 137.2 pg/mL and 137.2 ± 25.8 pg/mL
- 17-HDPA concentration [1, 11]: 58.9 pg/mL and 58.9 ± 13.2 pg/mL
- DPA concentration [1, 11]: 3873.1 pg/mL and 3873.1 ± 706.3 pg/mL
- MaR1n-3 DPA concentration [1, 11]: 0.9 pg/mL
- PD1n-3 DPA concentration [1, 11]: 0.5 pg/mL
- RvD1n-3 DPA concentration [1, 11]: 4.9 pg/mL
- RvD2n-3 DPA concentration [1, 11]: 7.4 pg/mL
- RvD5n-3 DPA concentration [1, 11]: 1.5 pg/mL
- RvT1 concentration [1, 11]: 2.0 pg/mL
- RvT2 concentration [1, 11]: 1.6 pg/mL
- RvT3 concentration [1, 11]: 1.4 pg/mL
- RvT4 concentration [1, 11]: 1.0 pg/mL
- 4HDHA concentration [1, 12]: 19.9 ± 5.1 pg/mL
- 5HEPE concentration [1, 12]: 42.7 ± 11.3 pg/mL
- 5HETE concentration [1, 12]: 69.9 ± 13.5 pg/mL
- 7HDHA concentration [1, 12]: 8.6 ± 3.7 pg/mL
- 12HEPE concentration [1, 12]: 402.4 ± 106.0 pg/mL
- 12HETE concentration [1, 12]: 5148.0 ± 1153.2 pg/mL
- 14HDHA concentration [1, 12]: 229.2 ± 41.2 pg/mL
- 15HEPE concentration [1, 12]: 31.3 ± 8.7 pg/mL
- 15HETE concentration [1, 12]: 336.4 ± 95.2 pg/mL
- 17HDHA concentration [1, 12]: 103.6 ± 25.9 pg/mL
- 18HEPE concentration [1, 12]: 36.2 ± 12.2 pg/mL
- AA concentration [1, 12]: 24205.0 ± 4783.4 pg/mL
- DHA concentration [1, 12]: 28104.0 ± 10103.4 pg/mL
- EPA concentration [1, 12]: 5867.2 ± 713.2 pg/mL

Compound: NC[C@H](O)c1ccc(O)c(O)c1 [norepinephrine]
- production of n-3 DPA derived mediators in peripheral blood [1]: did not significantly augment
